A short description of data set [1]: Elimination rate in healthy human at […], po. The arrangement: route oral. The format is ADME, organism-based. The following applies: in vivo.
The nature of data set [2]: AUClast in healthy human at […], po by ITT analysis. In kind it is ADME, organism-based. The arrangement: time 0 - last, route oral. The following applies: plasma.
Data set [3] in a line: AUClast in healthy human at […], po. The following applies: plasma. The arrangement: time 0 - last, route oral. The format is ADME, organism-based.
Data set [4] in a line: Cmax in healthy human at […] administered via nasogastric tube. The format is ADME, organism-based. The arrangement: route nasogastric. The settings on record: in vivo, po.
Data set [5] in a line: AUClast in healthy human at […] administered via nasogastric tube by ITT analysis. In kind it is ADME, organism-based. On the set-up: time 0 - last, route nasogastric. The settings on record: plasma, po.
The nature of data set [6]: Apparent oral clearance in healthy human at […] administered via nasogastric tube. The format is ADME, organism-based. The arrangement: route oral. The following applies: in vivo.
The nature of data set [7]: Apparent oral clearance in healthy human at […], po. The format is ADME, organism-based. On the set-up: route oral. The settings on record: in vivo.
The nature of data set [8]: Tmax in healthy human at 400 mg, po. The settings on record: in vivo.
Data set [9] can be described thus: AUClast in healthy human at […] administered via nasogastric tube. The arrangement: route nasogastric, time 0 - last. In kind it is ADME, organism-based. The settings on record: plasma, po.
Data set [10] in a line: Terminal half life in healthy human at […], po. The format is ADME, organism-based. The arrangement: route oral. The following applies: in vivo.
The nature of data set [11]: Terminal half life in healthy human at […] administered via nasogastric tube. The format is ADME, organism-based. The settings on record: in vivo.
Data set [12] in a line: Tmax in healthy human at […] administered via nasogastric tube. The following applies: in vivo. In kind it is ADME, organism-based.
Data set [13] can be described thus: Elimination rate in healthy human at […] administered via nasogastric tube. The following applies: in vivo. In kind it is ADME, organism-based.
Data set [14] in a line: AUC (0 to infinity) in healthy human at […], po. In kind it is ADME, organism-based. On the set-up: route oral, time infinity. The settings on record: plasma.
Data set [15] can be described thus: Cmax in healthy human at […], po by ITT analysis. In kind it is ADME, organism-based. On the set-up: route oral. The following applies: in vivo.
The nature of data set [16]: Cmax in healthy human at […] administered via nasogastric tube by ITT analysis. The format is ADME, organism-based. The arrangement: route nasogastric. The following applies: in vivo, po.
Data set [17] is described as follows: AUC (0 to infinity) in healthy human at […] administered via nasogastric tube by ITT analysis. In kind it is ADME, organism-based. The arrangement: route nasogastric, time infinity. The settings on record: plasma, po.
Data set [18] can be described thus: AUC (0 to infinity) in healthy human at […], po by ITT analysis. In kind it is ADME, organism-based. On the set-up: time infinity, route oral. The following applies: plasma.
The nature of data set [19]: AUC (0 to infinity) in healthy human at […] administered via nasogastric tube. The settings on record: plasma, po. The arrangement: route nasogastric, time infinity. In kind it is ADME, organism-based.
Data set [20] in a line: Cmax in healthy human at 400 mg, po. The settings on record: in vivo.

Experimental findings from ChEMBL document CHEMBL1649520, “Pharmacokinetics of posaconazole administered orally or by nasogastric tube in healthy volunteers” (Antimicrob Agents Chemother, 2009) are described below.

With `CC[C@@H]([C@H](C)O)n1ncn(-c2ccc(N3CCN(c4ccc(OC[C@@H]5CO[C@@](Cn6cncn6)(c6ccc(F)cc6F)C5)cc4)CC3)cc2)c1=O` [POSACONAZOLE], the k el in data set [1] is 9.72e-06 s⁻¹; in [13] it was 8.61e-06 s⁻¹. Besides, the AUC(0-t) in data set [2] is 9100 ng·h/mL; in [3], 10400 ng·h/mL; in data set [5], 6950 ng·h/mL; in data set [9], 8030 ng·h/mL. Besides, the highest concentration (Cmax) in data set [4] turned out to be 266 ng/mL; in data set [15] it was 289 ng/mL; in data set [16], 233 ng/mL; in data set [20], 324 ng/mL. In addition, the CL/F is 990 mL/min in data set [6] and 822 mL/min in data set [7]. The Tmax in data set [8] and in [12] was 4 h in each case. In addition, the half-life is 21.6 h in [10] and 23.7 h in data set [11]. In addition, the AUC(0-inf) was found to be 10900 ng·h/mL in [14], 7210 ng·h/mL in data set [17], 9390 ng·h/mL in [18] and 8400 ng·h/mL in data set [19].
